Patent US10590365B2, “Compounds for a controlled release of active molecules” (FIRMENICH SA, priority 2013, dated 2020)

How the values were obtained:
[1] = tested on: Propionibacterium acnes ATCC 6919; experiment: Incubation of pro-perfume glucuronide mixture with skin bacteria; remaining conjugate by LC-MS; format: cell-based; details: After 5 days; for Glucuronide-conjugates remaining after incubation with Propionibacterium acnes (in percentage), Average: average of incubations 1-3; for Glucuronide-conjugates remaining after incubation with Propionibacterium acnes (in percentage): blank fixed as 100%
Description: (§1) The liberation of perfuming alcohols from the present invention's compounds of formula (I) was tested in vitro during incubation with defined skin bacteria strains.
(§2) c) Bacterial solutions: Two underarm bacterial isolates, Propionibacterium acnes ATCC 6919 and Staphylococcus warneri DSM 20316 (identified by 16S rDNA sequencing by Deutsche Sammlung von Mikroorganismen and ZellKulturen DSMZ, Germany), were cultivated on SCH agar at 37° C. during 72 h in anaerobic conditions and on TSA at 37° C. during 24 h, respectively.
One isolated colony of P. acnes from the pure primary culture on SCH agar was inoculated on a new SCH agar and incubated at 37° C., 72 h in anaerobic conditions. After incubation, the whole culture was dissociated by shaking in 20 ml of NaCl 0.9% then centrifuged 10 min at 5000 rpm at room temperature. The pellet was washed in NaCl 0.9% and concentrated two times in NaCl 0.9%.
(§3) A pro-perfume glucuronides mixture containing menthol glucuronide (6 mg/kg), phenethylol β-glucuronide (10.75 mg/kg) and raspberry ketone β-glucuronide (13 mg/kg) in water was incubated with either: • 500 μL of the previously described bacterial solution • 10 μL of commercial enzymes β-glucuronidase/arylsulfatase from Helix pomatia (RocheDiagnostic, Indianapolis, USA) and 490 μL of NaCl 0.9% as a positive control • 500 μl of NaCl 0.9% as a negative controlfor the incubation with bacteria.
(§4) Each solution was prepared in duplicate (in glass vials).
(§5) The vials were placed in a heating block at 37° C. under gentle stirring from 1 to 7 days depending on the bacteria solutions. At the end of the incubation time, vials were cooled down to room temperature, 150 μL was mixed with 50 μL of LC-MS solvent B, filtered through acrodisc and 1 μL was injected on LC-MS (peak areas considered were measured in SIM mode according to their respective molecular weights). Comparisons were made between glucuronides (HESI−) or glucosides (HESI+) areas in incubated solutions and glucuronides (HESI−) or glucosides (HESI+) areas in the blanks (fixed as 100%).

[2] = tested on: Staphylococcus warneri DSM 20316; experiment: Incubation of pro-perfume conjugates with skin bacteria; remaining conjugate by LC-MS; format: cell-based
Description: as §1, §2
Similarly, one colony of S. warneri from the pure primary culture on TSA was inoculated on a new TSA and incubated for 24 h at 37° C. After incubation, the whole culture was dissociated by shaking in 20 ml of NaCl 0.9% then centrifuged 15 min at 5000 rpm, 4° C. The pellet was washed in NaCl 0.9% and concentrated two times in NaCl 0.9%.
as §3, §4, §5

[3] = Table 2, After 1 day, incubation 1
[4] = Table 2, After 1 day, incubation 2
[5] = Table 3, After 1 day, incubation 1
[6] = Table 3, After 1 day, incubation 2
[7] = Table 3, After 5 day, incubation 1
[8] = Table 3, After 5 day, incubation 2

SMILES	Glucuronide-conjugates remaining after incubation with Propionibacterium acnes (in percentage), Average [1] [%]	Glucuronide-conjugates remaining after incubation with Propionibacterium acnes (in percentage) ([1]; incubation 1) [%]	Glucuronide-conjugates remaining after incubation with Propionibacterium acnes (in percentage) ([1]; incubation 2) [%]	Glucuronide-conjugates remaining after incubation with Propionibacterium acnes (in percentage) ([1]; incubation 3) [%]	Glucuronide-conjugates remaining after incubation with S. warneri (in percentage), Average ([2]; Table 2, After 1 day) [%]	Glucuronide-conjugates remaining after incubation with S. warneri (in percentage) [2, 3] [%]	Glucuronide-conjugates remaining after incubation with S. warneri (in percentage) [2, 4] [%]	Glucuronide-conjugates remaining after incubation with S. warneri (in percentage), Average ([2]; Table 3, After 1 day) [%]	Glucuronide-conjugates remaining after incubation with S. warneri (in percentage) [2, 5] [%]	Glucuronide-conjugates remaining after incubation with S. warneri (in percentage) [2, 6] [%]	Glucuronide-conjugates remaining after incubation with S. warneri (in percentage), Average ([2]; Table 3, After 5 day) [%]	Glucuronide-conjugates remaining after incubation with S. warneri (in percentage) [2, 7] [%]	Glucuronide-conjugates remaining after incubation with S. warneri (in percentage) [2, 8] [%]
CC(=O)CCc1ccc(O[C@@H]2O[C@H](C(=O)O)[C@@H](O)[C@H](O)[C@H]2O)cc1 [(4-hydroxyphenyl)-2-butanone-β-D-glucopyranosiduronic acid]	58	61	58	57	0	0	0						
CC1CCC(C(C)C)C(O)C1 (centres unmarked) [menthol]								74	72	77	34	36	31
CC1CCC(C(C)C)C(OC2O[C@H](C(=O)O)[C@@H](O)[C@H](O)[C@H]2O)C1 (some centres unmarked) [p-menthan-3-ol, glucopyranosiduronic acid 1-menthyl]	7	5	9	7	0	1	0						
C=CCc1ccc(O[C@@H]2O[C@H](C(=O)O)[C@@H](O)[C@H](O)[C@H]2O)c(OC)c1 [β-D-glucopyranosiduronic acid 2-methoxy-4-(2-propen-1-yl)phenyl]								100	130	120	0	0	0
COc1cc(C=O)ccc1O[C@@H]1O[C@H](C(=O)O)[C@@H](O)[C@H](O)[C@H]1O [β-D-glucopyranosiduronic acid 4-formyl-2-methoxyphenyl]								100	84	96	0	0	0
